Test results as given in patent publication US20250057813A1, “APOPTOSIS RELATED PROTEIN IN THE TGF-BETA SIGNALING PATHWAY (ARTS) MIMETIC COMPOUNDS, COMPOSITIONS, METHODS AND USES THEREOF IN INDUCTION OF APOPTOSIS” (Carmel-Haifa University Economic Corporation Ltd., priority 2022, published 2025).

Tests used:
93 cancer cell lines = assay: Viability assay (SRB), cancer cell line screen; format: cell-based; conditions: 72 hrs, 10 mM to 0.1 μM
Procedure: (§1) The assay was performed at six tenfold serial dilutions of the B3 compounds: 10 mM (stock), 1 mM, 100 μM, 10 μM, 1 μM and 0.1 μM. The screen was performed on 93 cancer cell lines and PBMC as normal cell control. The B3 compound was incubated with the cells for 72 hours. The following cancer cell lines were screened:
(§2) The Sulforhodamine B (SRB) assay was used as a screening method. Briefly, the method relies on the property of SRB, to bind stoichiometrically to proteins under mild acidic conditions and to be extracted under basic conditions. Thus, the amount of bound dye can be used as a proxy for cell mass, which can then be extrapolated to measure cell proliferation. The protocol can be divided into four main steps: preparation of treatment, incubation of cells with treatment of choice, cell fixation and SRB staining and absorbance measurement.

A-375 cells = assay: Viability assay (SRB), cancer cell line screen; format: cell-based; conditions: Homo sapiens; A-375, 72 hours incubation; read-out: GI50 score
Procedure: as §1, §2

HeLa cells = assay: Western blot of HeLa cells exposed to B3; format: cell-based; conditions: 30 μM, 2-24 hrs
Procedure: (§3) The cells were lysed in WCE (whole-cell extract) buffer [25 mM Hepes, pH 7.7, 0.3M NaCl, 1.5 mM MgCl2, 0.2 mM EDTA, 0.1% Triton X-100, 100[μg/ml PMSF and protease inhibitor cocktail (Roche, 1:100 dilution)]. 100 μg of total cell protein, measured with the Bio-Rad Protein Assay kit, were separated by SDS-PAGE (12%) followed by transfer for 2 h on to a nitrocellulose membrane. The membrane was blocked with 5% (w/v) non-fat dried skimmed milk powder in PBS supplemented with 0.05% Tween20 (PBS-T) for 1 hour at room temperature (R.T). Membrane was then probed with primary antibody at 4° C. overnight. Next, the membrane was incubated with the appropriate HRP-conjugated secondary antibody, for 1 hour at R.T. and washed 15 min ×3 with PBS-T. WesternBright ECL (Advansta) was added to the membrane for 2 min and analyzed using ImageQuant LAS-4000 analyzer (GE Healthcare Life Sciences) & “ImageQuant LAS-4000” software (GE Healthcare Life Sciences). Densitometry analysis was performed using ImageQuant total lab 7 (GE Healthcare Life Sciences), image analysis software.

MCF10AT1K (M2) cells [1] = assay: 3D BME culture of M2 organoids, light microscopy; format: cell-based, Human
Procedure: (§4) Cells were harvested from their growth plates using 0.25% trypsin EDTA. Collected cells were cultured in Cultrex® growth factor reduced Basement Membrane Extract (BME: Trevigen, Inc) as follows: An 8 chamber glass slide system (Lab-TEK® II, Naperville, IL) was coated with 60 μl BME [Barkan D. et al., Cancer Research (2008)](protein concentration between […]; thickness-1-2 mm). 5×10^3 cells per well were re-suspended in DMEM/F12 supplemented with 2.5% DHS and 2% BME and cultured on the coated slides. Slides were incubated at 37° C., 5% CO2 incubator. Cells were re-fed every 4 days. Cell morphology was monitored by light microscopy. Immunofluorescence images were captured by Nikon Al—R confocal laser scanning microscope (Haifa University, Haifa, Israel).

MCF10AT1K (M2) cells [2] = assay: TUNEL assay in M2 cells in 3D BME system; format: cell-based, Human; conditions: 40 μM, 24 h
Procedure: as §4
The cells were cultured as described above in 8 well chamber glass slides, fixed according to Barkan's immunofluorescence staining protocol and incubated for 1 hour with a mixture of TUNEL reaction mix according to the manufacturer's protocol (In Situ Cell death Detection Kit, TMR Red; Roche, Cat #12-156-792-910) covered with aluminum foil and placed in the 37° C., 5% CO2 incubator. Following incubation, slides were washed three times with PBS for 5 minutes each, and mounted with […] mounting medium with DAPI. DAPI stain was used to assess total cell number. […]

[3] = test system: CCRF-CEM (acute lymphoblastic leukemia) cell line; assay: Western blot analysis of CCRF-CEM; format: cell-based; conditions: B3 alone, 24 hrs
Procedure: as §3

[4] = test system: WT MEFs and Sept4/ARTS KO MEFs cells; assay: Western blot of WT MEFs and Sept4/ARTS KO MEFs; format: cell-based, mouse; conditions: 20 or 40 μM, 24 hours
Procedure: Cells were lysed in whole-cell extract buffer [25 mM HEPES, pH 7.7, […], 1.5 mM MgCl2, 0.2 mM EDTA, 0.1% Triton X-100, 100 μg/ml phenylmethylsulfonyl fluoride (PMSF) and protease inhibitor cocktail (Roche, 1:100 dilution)] and placed on ice for 30 min (vortexing once after 15 min). After 30 minutes, the samples were centrifuged at 13,000×g for 10 minutes at 4° C. The supernatants containing total protein were measured for protein concentration using Bio-Rad Protein Assay Dye Reagent Concentrate Kit. 40 to […] was separated by sodium dodecyl sulfate-polyacrylamide gel electrophoresis (SDS-PAGE) (12% or 7.5%), followed by transfer to a nitrocellulose membrane. The membranes were blocked with 5% (w/v) non-fat dried skimmed milk powder in PBS supplemented with 0.05% Tween-20 (PBS-T) for 1 h at RT. Next, primary antibodies were added at 4° C. overnight or for 2 h at room temperature. Membranes were then incubated with secondary antibody for 1 h at RT and washed three times for 15 min each with PBS-T. Western Bright ECL (Advansta) was added to the membrane for 30-60 s and analyzed using Image Quant LAS-4000 (GE Healthcare Life Sciences) and Image Quant LAS-4000 software (GE Healthcare Life Sciences).

[5] = molecular target: T1, binding between ARTS and p53 (Mus musculus, UniProt P02340); assay: Co-immuno-precipitation between ARTS and p53 in Sept4/ARTS KO MEFs; format: cell-based; conditions: B3 for 24 hrs
T1 construct: expressed in transfected cells; host or cells: Sept4/ARTS KO MEFs (per the earlier reading)
T1 sequence (P02340 whole entry): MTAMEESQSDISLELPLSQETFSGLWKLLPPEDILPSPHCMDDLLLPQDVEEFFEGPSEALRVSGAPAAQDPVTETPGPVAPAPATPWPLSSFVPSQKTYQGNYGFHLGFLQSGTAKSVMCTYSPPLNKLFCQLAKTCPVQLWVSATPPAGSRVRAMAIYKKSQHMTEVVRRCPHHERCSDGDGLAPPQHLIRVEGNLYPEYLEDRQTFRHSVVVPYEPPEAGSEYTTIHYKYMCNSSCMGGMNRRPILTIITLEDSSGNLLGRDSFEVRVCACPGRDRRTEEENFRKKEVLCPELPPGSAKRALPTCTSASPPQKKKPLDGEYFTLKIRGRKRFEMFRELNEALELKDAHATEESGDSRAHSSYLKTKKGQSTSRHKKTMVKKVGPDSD
Procedure: Cells were harvested and lysed with radioimmunoprecipitation assay (RIPA) buffer (Tris-HCl pH 7.5 50 mM, NaCl 150 mM, NP-40 (Igepal) 0.3%) containing protease inhibitor cocktail (Complete, Roche) and 100 μg/ml PMSF. Antibodies were used at 5 μg per […] protein and incubated overnight, rotating at 4° C. The next day, agarose beads conjugated to protein A/G (Santa Cruz Biotechnology) were added for 4 h with rotation at 4° C. Samples were centrifuged at 4° C. for 5 min and washed five times with RIPA buffer. Proteins were eluted from beads by 10 min of boiling in sample buffer and separated on 12% SDS-PAGE gel, followed by Western blot analysis.

GI50 (A-375 cells): 14.8 µM
binding between ARTS and p53 [5]: reduces
SMILES: Cn1ccnc1C(=O)c1ccc(NC(=O)C(=O)N[C@H](CO)Cc2ccccc2)cc1 [B3, (S)-N1-(1-hydroxy-3-phenylpropan-2-yl)-N2-(4-(1-methyl-1H-imidazole-2-carbonyl)phenyl)oxalamide]
sensitivity of cancer cell lines to B3 (93 cancer cell lines): sensitive
anti-apoptotic markers (HeLa cells): reduction
cellular death (blebbing, cell shrinkage) (MCF10AT1K (M2) cells [1]; 40 μM, 24 h): induced cellular death
cellular death (blebbing, cell shrinkage) (MCF10AT1K (M2) cells [1]; increasing concentrations, 7 days, dose dependent): induced cellular death
number of cells positive for TUNEL staining (MCF10AT1K (M2) cells [2]): significant increase
induction of apoptosis [3]: sufficient to induce apoptosis
XIAP levels [4]: downregulates
p53 levels [4]: upregulate
